Test results from article PMC11915372, “Identification of a Series Containing a Pentafluorophenyl Moiety That Targets Pks13 to Inhibit Growth of Mycobacterium tuberculosis” (ACS Infectious Diseases, 2025).
≈ marks a conversion by molar mass, not a printed value. Where two headings read alike, the source gives them in different places.

Legend:
M. tuberculosis (H37Rv) = assay: microbe, parasite or virus in culture; format: cell-based, Mycobacterium tuberculosis; details: Mycobacterium tuberculosis, H37RV
physchem [1] = format: physicochemical
[2] = format: in vitro ADME, mouse
[3] = format: in vitro ADME, mouse; remark: listed apart in the source
HepG2 cells = assay: HepG2 cytotoxicity; details: Homo sapiens
Text: Assays to establish HepG2 cytotoxicity, in vitro microsomal/hepatocyte metabolic stability, aqueous kinetic solubility, and in vivo pharmacokinetic profiles were all performed as previously described.[15],[35]−[37]

physchem [4] = details: pH 7.4
[5] = read-out: Wk2_7H9/DPPC/ casitone/ Tyloxapol MIC
[6] = read-out: Wk2_ 7H9/DPPC/ cholesterol/BSA/ Tyloxapol MIC
[7] = read-out: Wk2_7H9/glucose/ BSA/Tyloxapol MIC
[8] = read-out: Wk2_7H9/glucose/ casitone/ Tyloxapol MIC
[9] = pH 7.4, aqueous buffer, kinetic from dmso stock
[10] = HepG2, read-out: HepG2 inhibitory concentration (IC50)
[11] = pH 7.4, aqueous buffer, kinetic from dmso stock, pH7.4, read-out: Kinetic Solubility pH7.4
[12] = intrinsic clearance (Cli), CD1 mouse liver microsomes, Tables 1-4

Structure (SMILES) | MIC (M. tuberculosis (H37Rv); read-out: H37Rv MIC A) [µM] | MIC (M. tuberculosis (H37Rv); read-out: H37Rv MIC B) [µM] | MIC (M. tuberculosis (H37Rv); [5]) [µM] | MIC (M. tuberculosis (H37Rv); [6]) [µM] | MIC (M. tuberculosis (H37Rv); [7]) [µM] | MIC (M. tuberculosis (H37Rv); [8]) [µM] | solubility kinetic (physchem [1]; [9]) [µM] | solubility kinetic (physchem [1]; read-out: Kin. Sol) [µM] | Microsomal Cli ([2]; CD1, mouse) [mL/min/g] | Mouse micro Cl ([2]; mouse, microsomes) [mLmin/g] | Hepatocyte Cli ([3]; mouse) [mL/min/g] | Mouse Heps Cl ([3]; mouse, hepatocytes) [mLmin/g] | IC50 (HepG2 cells; [10]) [µM] | other results
Oc1ncnc2oc(-c3c(F)c(F)c(F)c(F)c3F)nc12 [Compound 15, Oc1ncnc2oc(nc12)-c1c(c(c(c(c1F)F)F)F)F] | 1.4 (≈ 0.424 µg/mL) | 9.4 (≈ 2.85 µg/mL) | 1.4 (≈ 0.424 µg/mL) | 9.4 (≈ 2.85 µg/mL) | 5.4 (≈ 1.64 µg/mL) | 3.9 (≈ 1.18 µg/mL) | 149 (≈ 45.2 µg/mL) | 149 (≈ 45.2 µg/mL) | 2.8 | 2.81 | >50 | >50 | 88 | –
CNc1ncnc2oc(-c3c(F)c(F)c(F)c(F)c3F)nc12 [Compound 12, CNc1ncnc2oc(nc12)-c1c(c(c(c(c1F)F)F)F)F] | > 50 | > 50 | > 50 | > 50 | > 50 | > 50 | 227 (≈ 71.8 µg/mL) | 228 (≈ 72.1 µg/mL) | <0.5 | 0.5 | 4.7 | 4.7 | > 100 | –
Fc1c(F)c(F)c(-c2nc3cncnc3s2)c(F)c1F [Compound 11, Fc1c(c(c(c(c1F)F)-c1nc2cncnc2s1)F)F] | 0.34 (≈ 0.103 µg/mL) | 6.3 (≈ 1.91 µg/mL) | 0.342 (≈ 0.104 µg/mL) | 6.3 (≈ 1.91 µg/mL) | 4.7 (≈ 1.43 µg/mL) | 0.279 (≈ 0.0846 µg/mL) | 103 (≈ 31.2 µg/mL) | 103 (≈ 31.2 µg/mL) | 18 | 18 | – | – | 35 | –
CN(C)c1ncnc2sc(-c3c(F)c(F)cc(F)c3F)nc12 [Compound 2, CN(C)c1ncnc2sc(nc12)-c1c(c(cc(c1F)F)F)F] | > 50 | > 50 | > 50 | > 50 | > 50 | 4.7 (≈ 1.54 µg/mL) | – | – | >50 | >50 | – | – | > 100 | –
CN(C)c1ncnc2sc(-c3ccc(F)cc3)nc12 [Compound 5, CN(C)c1ncnc2sc(nc12)-c1ccc(cc1)F] | > 50 | > 50 | > 50 | > 50 | > 50 | 19 (≈ 5.21 µg/mL) | – | – | >50 | >50 | – | – | > 100 | –
CN(C)c1nccc2oc(-c3c(F)c(F)c(F)c(F)c3F)nc12 [Compound 14, CN(C)c1nccc2oc(nc12)-c1c(c(c(c(c1F)F)F)F)F] | 3.1 (≈ 1.02 µg/mL) | 9.4 (≈ 3.09 µg/mL) | 3.1 (≈ 1.02 µg/mL) | 9.4 (≈ 3.09 µg/mL) | 6.3 (≈ 2.07 µg/mL) | 3.1 (≈ 1.02 µg/mL) | – | – | >50 | >50 | >50 | >50 | > 100 | –
CCN(CC)c1ncnc2sc(-c3c(F)c(F)c(F)c(F)c3F)nc12 [Compound 8, CCN(CC)c1ncnc2sc(nc12)-c1c(c(c(c(c1F)F)F)F)F] | 0.3 (≈ 0.112 µg/mL) | 0.78 (≈ 0.292 µg/mL) | 0.3 (≈ 0.112 µg/mL) | 0.8 (≈ 0.299 µg/mL) | 0.8 (≈ 0.299 µg/mL) | 0.4 (≈ 0.15 µg/mL) | 0.142 (≈ 0.0532 µg/mL) | – | 26 | 26 | – | – | > 100 | solubility kinetic (physchem [1]; water, kinetic from dmso stock): 0.1 µM (≈ 0.0374 µg/mL)
COC(=O)c1cccnc1NC(=O)c1c(F)c(F)c(F)c(F)c1F [Compound 17, COC(=O)c1cccnc1NC(=O)c1c(c(c(c(c1F)F)F)F)F] | 9.4 (≈ 3.25 µg/mL) | > 50 | 9.4 (≈ 3.25 µg/mL) | > 50 | > 50 | 12.5 (≈ 4.33 µg/mL) | – | – | 47 | 47 | – | – | > 100 | –
Fc1c(F)c(F)c(-c2nc3c(N4CCOCC4)ncnc3s2)c(F)c1F [Compound 9, Fc1c(c(c(c(c1F)F)-c1nc2c(ncnc2s1)N1CCOCC1)F)F] | – | 0.6 (≈ 0.233 µg/mL) | – | 0.6 (≈ 0.233 µg/mL) | 0.6 (≈ 0.233 µg/mL) | 0.07 (≈ 0.0272 µg/mL) | 2.8 (≈ 1.09 µg/mL) | 2.8 (≈ 1.09 µg/mL) | 43 | 43 | – | – | > 100 | –
CN(C)c1ncnc2sc(-c3cc(F)c(F)c(F)c3)nc12 [Compound 4, CN(C)c1ncnc2sc(nc12)-c1cc(c(c(c1)F)F)F] | > 50 | > 50 | > 50 | > 50 | > 50 | > 50 | – | – | >50 | >50 | – | – | > 100 | –
Fc1c(F)c(F)c(-c2nc3c(N4CCOCC4)ncnc3o2)c(F)c1F [Compound 10, Fc1c(c(c(c(c1F)F)-c1nc2c(ncnc2o1)N1CCOCC1)F)F] | 0.2 (≈ 0.0745 µg/mL) | 1.2 (≈ 0.447 µg/mL) | 0.2 (≈ 0.0745 µg/mL) | 1.2 (≈ 0.447 µg/mL) | 1.2 (≈ 0.447 µg/mL) | 0.15 (≈ 0.0558 µg/mL) | – | – | – | – | – | – | 49 | solubility kinetic (physchem [1]; kinetic from dmso stock, kinetic solubility in water, read-out: Kin. Sol): 13.6 µM (≈ 5.06 µg/mL); solubility kinetic (physchem [1]; [11]): 14 µM (≈ 5.21 µg/mL); Mouse micro Cl [2, 12]: 44 mLmin/g; Microsomal Cli ([2]; supplement data table): 44 mL/min/g; Mouse Heps Cl ([3]; intrinsic clearance (Cli), mouse hepatocytes, Tables 1-4): >50 mLmin/g; Hepatocyte Cli ([3]; supplement data table): >50 mL/min/g; IC50 (HepG2 cells; HepG2, read-out: Hs-HEPG IC50): 48 µM
CN(C)c1ncnc2sc(-c3ccccc3)nc12 [Compound 3, CN(C)c1ncnc2sc(nc12)-c1ccccc1] | > 50 | > 50 | > 50 | > 50 | > 50 | > 50 | – | – | >50 | >50 | – | – | > 100 | –
CN(C)c1ncnc2c1nc(-c1c(F)c(F)c(F)c(F)c1F)n2C [Compound 7, CN(C)c1ncnc2n(c(nc12)-c1c(c(c(c(c1F)F)F)F)F)C] | 1.9 (≈ 0.652 µg/mL) | > 50 | 1.9 (≈ 0.652 µg/mL) | > 50 | > 50 | 1.7 (≈ 0.584 µg/mL) | 26 (≈ 8.92 µg/mL) | 26 (≈ 8.92 µg/mL) | 8.4 | 8.4 | – | – | > 100 | –
CCOC(=O)c1nc(C)oc1NC(=O)c1cc(F)c(F)c(F)c1 [Compound 26, CCOC(=O)c1nc(oc1NC(=O)c1cc(c(c(c1)F)F)F)C] | > 50 | > 50 | > 50 | > 50 | > 50 | > 50 | – | – | – | – | – | – | – | solubility kinetic (physchem [1]; kinetic solubility in water, read-out: Kin. Sol): 241 µM (≈ 79.1 µg/mL); solubility kinetic (physchem [1]; [11]): 241 µM (≈ 79.1 µg/mL); Mouse micro Cl [2, 12]: 7.1 mLmin/g; Microsomal Cli ([2]; supplement data table): 7.1 mL/min/g; chromatographic logD (physchem [4]): 2.3
CN(C)c1ccnc2oc(-c3c(F)c(F)c(F)c(F)c3F)nc12 [Compound 13, CN(C)c1ccnc2oc(nc12)-c1c(c(c(c(c1F)F)F)F)F] | 0.6 (≈ 0.198 µg/mL) | 3.1 (≈ 1.02 µg/mL) | 0.6 (≈ 0.198 µg/mL) | 3.1 (≈ 1.02 µg/mL) | 2.3 (≈ 0.757 µg/mL) | 0.6 (≈ 0.198 µg/mL) | 1.6 (≈ 0.527 µg/mL) | 1.6 (≈ 0.527 µg/mL) | >50 | >50 | >50 | >50 | – | –
CN(C)c1ncnc2oc(-c3c(F)c(F)c(F)c(F)c3F)nc12 [Compound 6, CN(C)c1ncnc2oc(nc12)-c1c(c(c(c(c1F)F)F)F)F] | 0.2 (≈ 0.066 µg/mL) | 1.4 (≈ 0.462 µg/mL) | 0.2 (≈ 0.066 µg/mL) | 1.4 (≈ 0.462 µg/mL) | 1.4 (≈ 0.462 µg/mL) | 0.15 (≈ 0.0495 µg/mL) | 1 (≈ 0.33 µg/mL) | 1.0 (≈ 0.33 µg/mL) | >50 | >50 | >50 | >50 | > 100 | –
